Columns and labels:
[1] = tested on: CASQ2 KO mice; test: In vivo telemetric ECG recording in CASQ2 KO mice; parameters: species or system mouse; conditions: 20 mg/kg IP; for number of mice, most severe ECG form: NSVT / number of mice, most severe ECG form: Normal (sinusal rhythm) / number of mice, most severe ECG form: SVT / number of mice, most severe ECG form: VPC: n=6
Text: (§1) Telemetric ambulatory long-term ECG recordings, analogous to Holter monitoring in humans, were obtained with implantable transmitters. […] An implantable 3.5 grams wireless radiofrequency transmitter (DSI MM USA, device weight 3.8 grams) was aseptically inserted into a subcutaneous tissue pocket in the back as described in Katz, G., et al. Heart Rhythm 7, 1676-1682 (2010) and Kurtzwald-Josefson, E., et al. Heart Rhythm 11, 1471-1479 (2014)]. Animals were allowed to recover after surgery for at least 24 hours before any experiments. Baseline electrocardiograms (ECG) were obtained 15 minutes after IP injection of the appropriate vehicle (peanut oil or peanut oil supplemented with ethanol 1%). […] Telemetered ECG tracings were obtained in conscious mice at rest for one minute and during peak exercise (i.e. the first minute of recovery). In the treadmill exercise, mice were forced to exercise on a rodent treadmill; gradually increasing the speed up to a maximum of 15 m/minute. Ventricular tachycardia (VT) was defined as four or more consecutive ventricular beats. If this phenotype was consecutively observed for more than 15 seconds, it was defined as “sustained” ventricular tachycardia (SVT). Shorter VTs were characterized as “non-sustained” (NSVT). All other ventricular arrhythmias, such as premature beats, ventricular bigeminy, couplets and triplets were all defined as ventricular premature contractions (VPCs).
(§2) A heart telemetry device was implanted in WT, CASQ2-D307H KI and CASQ2 KO mice for continuous ECG recording at rest and during treadmill exercise. For each session, continuous ECG recording was performed with the same animals receiving first intraperitoneal (IP) injection of vehicle (peanut oil) and then the SK4 channel blocker.
(§3) The types of arrhythmic features were classified following their seriousness: sinusal rhythm (normal), ventricular premature contractions (VPC), non-sustained ventricular tachycardia (NSVT) and sustained ventricular tachycardia (SVT). For each mouse was considered the most severe form of arrhythmia recorded under ECG.

[2] = tested on: WT mice; test: In vivo telemetric ECG recording in WT (normal) mice; parameters: species or system mouse; conditions: 20 mg/kg IP, WT mice at rest
Text: as §1
as §2, with “For this, a” for “A”, “norma” for “WT, CASQ2-D307H KI and CASQ2 KO”, “20 mg/kg clotrimazole.” for “the SK4 channel blocker.”
as §2

[3] = tested on: If and INCX currents; conditions: 5 μM TRAM-34; cited from earlier work
[4] = tested on: CASQ2-D307H KI mice; test: In vivo telemetric ECG recording in CASQ2-D307H KI mice; parameters: species or system mouse; conditions: 20 mg/kg IP; for number of mice, most severe ECG form: NSVT / number of mice, most severe ECG form: Normal (sinusal rhythm) / number of mice, most severe ECG form: SVT / number of mice, most severe ECG form: VPC: n=5 Clotrimazole, n=12 TRAM-34
Text: as §1, §2, §3

[5] = tested on: normal hiPSC-CMs; test: Spontaneous APs in hiPS-CMs derived from normal individuals; format: cell-based, human; conditions: 5 μM TRAM-34 added to 3 μM isoproterenol
Description: In all experiments, the coverslips were perfused at 33° C. with an external solution containing (in mM): 140 NaCl, 4 KCl, 11 Glucose, 1.2 MgCl2, 1.8 CaCl2, 5.5 HEPES titrated to pH 7.4 with NaOH and adjusted at 320 mOsm with sucrose.
FIG. 4E (Left) presents representative traces of spontaneous APs recorded in hiPS-CM derived from a normal individual. […] FIG. 4E (Right) are bar graphs presenting data summary of pacing rate (normalized to Ctrl; one-way ANOVA **P=0.0071, n=14), DD slope (paired t-test, ***P<0.0001, n=14) and APD50 (one-way ANOVA *P=0.0243, n=18).

[6] = tested on: intact SAN tissue preparations from WT mice; test: Spontaneous calcium transients ex vivo in intact SAN tissue from WT mice (Fluo-4 AM); format: cell-based, mouse; conditions: 2 μM TRAM-34 in presence of 100 nM isoproterenol
Description: SAN tissue preparations were dissected ex vivo from WT and CASQ2-D307H KI mice as described in Torrente, A. G., et al. Proc Natl Acad Sci USA 112, 9769-9774 (2015). The dissected whole SAN tissue was pinned on a hand-made chamber and was incubated in a Tyrode solution containing 10 μM Fluo-4 AM (Thermo Fisher Scientific) and pluronic acid for 1 hour at 37° C. in the dark. The SAN tissue was washed in Tyrode at 37° C. in the dark for 10 minutes before experiments. Fluorescence of calcium transients was recorded using a photomultiplier (PTi D-104) at 35° C. and the analog signals were digitized using Digidata 1440 (Molecular Devices) and analyzed with pCLAMP 10.5 software.
To investigate the spontaneous calcium transients of the SAN, intact SAN tissue preparations dissected ex vivo from WT and CASQ2-D307H KI mice were exposed to Fluo-4 AM as previously described [Torrente, A. G., et al. Proc Natl Acad Sci USA 112, 9769-9774 (2015)].
FIG. 6A (Left) presents representative traces of spontaneous calcium transients recorded ex vivo in intact SAN tissue preparations from WT mice. […] Right: data summary of calcium transient rate (one-way-ANOVA***P=0.0003; n=12).

[7] = molecular target: T1, SK4 K+ currents (Mus musculus, UniProt O89109); test: Voltage-ramp recording of TRAM-34-sensitive current in SAN cells from WT and CASQ2-D307H KI mice; format: cell-based; conditions: 5 μM TRAM-34 added to solution 1
T1 construct: representative traces of SAN cells isolated from WT and CASQ2-D307H KI mice; endogenous in cells; host or cells: primary sinoatrial node (SAN) cells dissociated from WT and CASQ2-D307H KI mouse hearts
Text: Individual SAN cells were isolated from WT and CASQ2-D307H homozygous KI mice and recorded as described above, except that cells were held at −40 mV to improve their stability.
FIGS. 5A-B presents representative traces of SAN cells isolated from WT and CASQ2-D307H KI mice. […] The orange traces indicate that cells were exposed to blocker solution 1. […] The inward hump and substantial inward and outward currents disappeared upon exposure of cells to solution 1 (orange traces).

## Clc1ccccc1C(c1ccccc1)(c1ccccc1)n1cccn1 [TRAM-34, 1-[(2-chlorophenyl)diphenylmethyl]-1H-pyrazole]
[1]; KO mice at rest, n=7
  PR prolongation: 46%
  heart rate decrease: 34±7%
[1]; KO mice during treadmill exercise
  sinus rate and PR interval: significant sinus bradycardia and PR interval prolongation
[1]; KO at rest
  number of mice, most severe ECG form: NSVT: 0
  number of mice, most severe ECG form: Normal (sinusal rhythm): 6
  number of mice, most severe ECG form: SVT: 0
  number of mice, most severe ECG form: VPC: 0
[1]; KO during exercise
  number of mice, most severe ECG form: NSVT: 3
  number of mice, most severe ECG form: Normal (sinusal rhythm): 3
  number of mice, most severe ECG form: SVT: 0
  number of mice, most severe ECG form: VPC: 0
[2]
  prolongation of the PR interval: 20%
[2]; vs vehicle in same animal
  reduction of resting heart rate: 16±3%
[3]
  If and INCX currents: unaffected
[4]; KI mice at rest, n=12
  PR prolongation: 23%
  heart rate decrease: 24±4%
[4]; KI mice during treadmill exercise
  sinus rate and PR interval: significant sinus bradycardia and PR interval prolongation
[4]; KI mice, resting conditions
  mice with ECG arrhythmic features totally suppressed: 9 out of 12
[4]; KI at rest
  number of mice, most severe ECG form: NSVT: 0
  number of mice, most severe ECG form: Normal (sinusal rhythm): 9
  number of mice, most severe ECG form: SVT: 0
  number of mice, most severe ECG form: VPC: 3
[4]; KI during Exercise
  number of mice, most severe ECG form: NSVT: 4
  number of mice, most severe ECG form: Normal (sinusal rhythm): 4
  number of mice, most severe ECG form: SVT: 0
  number of mice, most severe ECG form: VPC: 4
[5]
  cells with suppression of the pacing: 10 out of 14
  maximal diastolic potential (MDP): depolarized the maximal diastolic potential
  slope of diastolic depolarization (DD): significantly decreased the slope of diastolic depolarization
[6]
  pattern of the Ca2+ waves: did not alter the pattern of the Ca^2+ waves
[7]
  TRAM-34-sensitive current density: TRAM-34-sensitive currents with similar densities were isolated

Reference: patent publication US11166940B2, “Treatment of cardiac disorders by blocking SK4 potassium channel” (Ramot at Tel-Aviv University Ltd., priority 2016, dated 2021)
